Laboratory results from patent US20100137346A1, “DESFE[…] ACTINIDE DEC[…]” (priority 2006, published 2010).

What was measured:
[1] = Chelator-induced uranium excretion (urine + bile, 24 h) in bile duct-cannulated rat model; type: in vivo
Procedure: Desferrithiocin Analogue Induced Excretion of Uranium. In order to compare results with previous chelator-induced iron excretion data, the uranium clearance studies were carried out in a bile duct-cannulated rat model. The animals were given uranyl acetate dihydrate SC at a dose of 5 mg/kg (the actual dose of uranium is 2.8 mg/kg). Bile and urine samples were collected for 24 hours after dosing. Kidneys were removed from selected animals and tissue uranium concentration measured. At least three animals were utilized in each experimental group. Data from two separate control studies (uranyl acetate/ no chelator) have now been combined for a total of 14 control animals. All uranium concentrations were measured using ICPMS. The data are reported as the total quantity of uranium excreted [urine +bile]; the mode of excretion [urine/bile] is also given. In addition the percentage of the administered dose of uranium cleared and chelator-induced uranium excretion vs the controls is also given. Four positive controls were evaluated: DTPA (13, Table 1) given as its trisodium calcium salt, DFO (14), N,N′-bis(2hydroxybenzyl)ethylenediamine-N,N′-diacetic acid, monosodium salt (NaHBED, 15) and the hydroxypyridone CP94 (16) shown to bind uranium [Pashalidis, et al., Effective complex formation in the interaction of 1,2-dimethyl-3-hydroxypyrid-4-one (Deferiprone or L1) with uranium(VI), Journal of Radioanalytical and Nuclear Chemistry 1999; 242:181-184.] The total metal cleared after 24 h in control rats was 10% of the administered dose. When DTPA, 13, was given IP or PO at 300 μmol/kg immediately after uranium, the excretion was 17% and 8% of the administered dose respectively (p>0.05). However, when the drug was given IP at a dose of 600 μmol/kg immediately post-metal, the uranium excretion was significant, 20% (p<0.005). This is consistent with previously published data using a similar animal model.[Domingo, et al., Comparative effects of the chelators sodium 4,5-dihydroxybenzene-1,3-disulfonate (Tiron) and diethylenetriaminepentaacetic acid (DTPA) on acute uranium nephrotoxicity in rats, Toxicology 1997; 118:49-59] DFO (14) and CP94 (16) given IP immediately post uranyl acetate were ineffective.
Desferrithiocin Analogue-Induced Excretion of Uranium. In order to compare results with previous chelator-induced iron excretion data, the uranium clearance studies were carried out in a bile duct-cannulated rat model. The animals were given uranyl acetate dihydrate SC at a dose of 5 mg/kg (the actual dose of uranium is 2.8 mg/kg). Bile and urine samples were collected for 24 hours after dosing. Kidneys were removed from selected animals and tissue uranium concentration measured. At least three animals were utilized in each experimental group. Data from two separate control studies (uranyl acetate/ no chelator) are combined for a total of 14 control animals. All uranium concentrations were measured using ICPMS. The data are reported as the total quantity of uranium excreted [urine +bile]; the mode of excretion [urine/bile] is also given. In addition the percentage of the administered dose of uranium cleared and chelator-induced uranium excretion vs the controls is also given. Four positive controls were evaluated: DTPA (1, Table 1) given as its trisodium calcium salt, DFO (2), N,N -bis(2-hydroxybenzyl)ethylenediamine-N,N-diacetic acid, monosodium salt (NaHBED, 3) and the hydroxypyridone CP94 (4) shown to bind uranium. The total metal cleared after 24 h in control rats was 10% of the administered dose. When DTPA, 1, was given IP or PO at 300 μmol/kg immediately after uranium, the excretion was 17% and 8% of the administered dose respectively (p>0.05). However, when the drug was given IP at a dose of 600 μmol/kg immediately post metal, the uranium excretion was significant, 20% (p<0.005). This is consistent with previously published data using a similar animal model.^2 DFO (2) and CP94 (4) given IP immediately post uranyl acetate were ineffective.

[2] = cited from earlier work; for relative percentages of the iron excreted in the stool and urine / Iron Clearing Efficiency (%): orally to C. apella primates, 150 μmol/kg, data from ref 19 / ref 17

Q: Which results are given for `CC1(C)SC(c2ccccc2O)=N[C@@H]1C(=O)O` [drawing 20]?
A: % of Administered Dose Cleared ([1]; 300 μmol/kg IP 0.5 h Post): 7%; Chelator-Induced U Excretion/Control ([1]; 300 μmol/kg IP 0.5 h Post): 0.7; Uranium Excretion ([1]; 300 μmol/kg IP 0.5 h Post): 200 ± 47 µg/kg; Uranium Excretion [urine/bite] ([1]; 300 μmol/kg IP 0.5 h Post): 37/63; % of Administered Dose Cleared ([1]; 300 μmol/kg IP Immediate): 26%; Chelator-Induced U Excretion/Control ([1]; 300 μmol/kg IP Immediate): 2.6; Uranium Excretion ([1]; 300 μmol/kg IP Immediate): 743 ± 189 µg/kg; Uranium Excretion [urine/bite] ([1]; 300 μmol/kg IP Immediate): 8/92

Q: Which “Uranium Excretion” value ([1]; 300 μmol/kg IP Immediate) does the source give for `COCCOCCOCCOc1ccc(C2=N[C@@](C)(C(=O)O)CS2)c(O)c1` [drawing 21] here?
A: 626 ± 123 µg/kg

Q: What about the “Uranium Excretion [urine/bite]” value ([1]; 300 μmol/kg IP Immediate) of the same molecule?
A: 35/65

Q: And the response vs control in vivo at 300 µmol/kg ([1]; Rattus norvegicus, ip, 24 h, 300 μmol/kg IP Immediate, read-out: Chelator-Induced U Excretion/Control)?
A: 220%

Q: What does the source list for `O=C(O)[C@H]1CSC(c2ccc(O)cc2O)=N1` [drawing 22]?
A: relative percentages of the iron excreted in the stool and urine [2]: 70/30; Iron Clearing Efficiency (%) [2]: 4.2 ± 1.4%

Q: What does the source list for `C[C@]1(C(=O)O)CSC(c2ccc(O)cc2O)=N1` [drawing 23]?
A: relative percentages of the iron excreted in the stool and urine [2]: 86/14; Iron Clearing Efficiency (%) [2]: 13.4 ± 5%

Q: For `COc1ccc(C2=N[C@@H](C(=O)O)CS2)c(O)c1` [drawing 24], which “relative percentages of the iron excreted in the stool and urine” value [2] is on record?
A: 81/19

Q: What about the “Iron Clearing Efficiency (%)” value [2] of the same molecule?
A: 16.2 ± 3.2%

Q: With `COc1ccc(C2=N[C@@](C)(C(=O)O)CS2)c(O)c1` [drawing 25] as the molecule, how does the “relative percentages of the iron excreted in the stool and urine” value [2] read?
A: 91/9

Q: What about the “Iron Clearing Efficiency (%)” value [2] of the same molecule?
A: 24.4 ± 10.8%

Q: What does the source list for “desferrioxamine [DFO, reference compound]”?
A: uranium clearance, in words ([1]; given IP immediately post uranyl acetate, doses per Table 1): ineffective; ICE ([2]; subcutaneous administration, iron-loaded Cebus apella primate): 5.0±2.6%
